Experimental data: PMC7530896 (Journal of the American Chemical Society, 2020)

Tests used:
PARK7 = assay: Morpholino injections in zebrafish embryos, heart phenotype; type: in vivo, zebrafish (Danio rerio); details: 2 dpf zebrafish embryos
UCHL1 = assay: Morpholino injections in zebrafish embryos, tail phenotype; type: in vivo, zebrafish (Danio rerio); details: 2 dpf zebrafish embryos, 2 ng morpholino
[1] = biological target: T1, purified recombinant human UCHL1 (Homo sapiens, UniProt P09936); assay: Probe labeling of purified recombinant UCHL1; type: binding; details: small-molecule probes: nondenaturing SDS-PAGE (no boiling, no β-mercaptoethanol)
T1 sequence (P09936 1-223): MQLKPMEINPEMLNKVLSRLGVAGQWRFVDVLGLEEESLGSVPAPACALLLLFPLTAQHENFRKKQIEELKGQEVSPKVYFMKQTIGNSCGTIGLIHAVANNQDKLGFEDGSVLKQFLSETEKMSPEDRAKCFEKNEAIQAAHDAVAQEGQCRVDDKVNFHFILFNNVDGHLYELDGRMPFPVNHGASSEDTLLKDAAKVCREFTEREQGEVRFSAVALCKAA

Row | Substance | Tail phenotype % curly tail (UCHL1) [%] | further results
1 | PARK7MO1: morpholino targeting PARK7 exon 2, 5′-TATGTAAAGTCAGACCTGTTTGTG-3′ (all phosphorodiamidate morpholino (PMO)) |  | abnormal enlarged heart phenotype (PARK7): ~18%
2 | UCHL1MO1: morpholino targeting UCHL1, 5′-TATTTCCATCGGTTTCCACTCCATG-3′ (all phosphorodiamidate morpholino (PMO)) | 53 | 
3 | rhodamine-ubiquitin-propargylamide [Rh-Ub-PA] |  | labeling of purified recombinant human UCHL1 [1]: nearly all UCHL1 is labeled
4 | UCHL1MO2: morpholino targeting UCHL1 exon 4, 5′-GTTCCTTAAACATATCCACTTACCA-3′ (all phosphorodiamidate morpholino (PMO)) | 79 | 
